# According to the Deep4Chem optical property database:
# Test: solvent given as SMILES
smiles,measurement,setting,value
F[B-]1(F)n2c(Cl)ccc2C(c2c(Cl)cccc2Cl)=C2C=CC(NCc3ccccc3)=[N+]21,absorption maximum,in CC#N,479 nm
same,absorption maximum,in CCCCCC,523 nm
same,absorption maximum,in CCOC(C)=O,497 nm
same,absorption maximum,in CO,488 nm
same,absorption maximum,in ClCCl,505 nm
C[C@]12SC(=O)C=C1c1nc(-c3ccc(Cl)cc3Cl)[nH]c1C1=CC(=O)S[C@@]12C,absorption maximum,in CC#N,475 nm
S=C1CCCCC1,absorption maximum,in CCO,495 nm
Cc1cc2c(o1)=CC1=C(C(F)(F)F)c3cc4oc(C)cc4n3[B-](F)(F)[N+]=21,absorption maximum,in ClC(Cl)Cl,613 nm
CCN(CC)c1ccc2cc(-c3cn4cc(OC)ccc4n3)c(=O)oc2c1,absorption maximum,in ClC(Cl)Cl,434 nm
COc1ccc(-c2oc3cccc4c5c(-c6ccc(OC)c(OC)c6)/c(=N/S(=O)(=O)C(F)(F)F)oc6cccc(c2c34)c65)cc1OC,absorption maximum,in ClC(Cl)Cl,485 nm
COc1ccc(-c2cnc(/C=C/c3ccc(C#N)cc3)o2)cc1OC,absorption maximum,in ClCCl,370 nm
O=c1c2ccccc2sc2ccc(-n3c4ccccc4c4ccccc43)cc12,absorption maximum,in C1CCOC1,388 nm
same,absorption maximum,in CCCCCC,388 nm
same,absorption maximum,in Cc1ccccc1,388 nm
same,absorption maximum,in ClC(Cl)Cl,388 nm
same,absorption maximum,in ClCCl,388 nm
CC(C)(C)c1cccc2c1oc1nc3oc4ccc(-n5c6ccccc6c6ccccc65)cc4c3cc12,absorption maximum,in ClC(Cl)Cl,348 nm
CCCCN1C(=S)c2cccc3c(OC)ccc(c23)C1=S,absorption maximum,in CC#N,476 nm
same,absorption maximum,in CS(C)=O,483 nm
same,absorption maximum,in Cc1ccccc1,468 nm
CC(C)(C(=O)c1ccc(N2c3ccccc3Oc3ccccc32)cc1)C(=O)c1ccc(N2c3ccccc3Oc3ccccc32)cc1,absorption maximum,in Cc1ccccc1,416 nm
COc1ccc(-c2ccc(-c3ccc(C#N)cc3)cc2)cc1,absorption maximum,in C1CCCCC1,305 nm
C[n+]1ccnc(/C=C/c2ccc(N(c3ccccc3)c3ccc(/C=C/c4c[n+](C)ccn4)cc3)cc2)c1,absorption maximum,in CS(C)=O,440 nm
same,absorption maximum,in O,485 nm
same,absorption maximum,in OCC(O)CO,500 nm
COc1ccc2c(-c3nc(-c4ccccc4F)no3)cc(=O)oc2c1,absorption maximum,in CCO,333 nm
same,absorption maximum,in ClC(Cl)Cl,339 nm
CCCCCCCCCCn1cc(C2=C(c3cn(CCCCCCCCCC)c4ccccc34)C(=O)N(C)C2=O)c2ccccc21,absorption maximum,in C1CCCCC1,462 nm
same,absorption maximum,in C1CCOC1,471 nm
same,absorption maximum,in CC#N,470 nm
same,absorption maximum,in CC(C)OC(C)C,470 nm
same,absorption maximum,in CCCCOCCCC,469 nm
same,absorption maximum,in CCO,480 nm
same,absorption maximum,in CCOC(C)=O,472 nm
same,absorption maximum,in CN(C)C=O,474 nm
same,absorption maximum,in Cc1ccccc1,472 nm
same,absorption maximum,in ClCCl,477 nm
CCCCCCc1cc2/c(=C(\C#N)C(=O)OC)s/c(=c3/s/c(=C(/C#N)C(=O)OC)c4cc(CCCCCC)sc34)c2s1,absorption maximum,in Cc1ccccc1,580 nm
CCCCCCOc1ccc(N(c2ccc(OCCCCCC)cc2)c2ccc(-c3sc(-c4ccc(N(c5ccc(OCCCCCC)cc5)c5ccc(OCCCCCC)cc5)cc4)c4nc(-c5ccccc5)c(-c5ccccc5)nc34)cc2)cc1,absorption maximum,in C1CCOC1,601 nm
same,absorption maximum,in CC(C)=O,592 nm
same,absorption maximum,in CCOC(C)=O,594 nm
same,absorption maximum,in CCOCC,600 nm
same,absorption maximum,in CN(C)C=O,598 nm
same,absorption maximum,in Cc1ccccc1,600 nm
same,absorption maximum,in ClC(Cl)Cl,601 nm
same,absorption maximum,in ClCCl,600 nm
CN(C)c1ccc(-n2c(-c3ccncc3)nc3ccccc32)cc1,absorption maximum,in CC#N,299 nm
C(=C\c1nc2c3ccccc3c3ccccc3c2o1)/c1ccccc1,absorption maximum,in CC#N,364 nm
COC(=O)C(Cc1ccc2oc(-c3ccc(-n4c5ccccc5c5ccccc54)cc3)nc2c1)NC(=O)OC(C)(C)C (centres undefined),absorption maximum,in C1CCCCC1,340 nm
same,absorption maximum,in C1CCOC1,341.8 nm
same,absorption maximum,in C1COCCO1,341.4 nm
same,absorption maximum,in CC1CCCO1,341.41 nm
same,absorption maximum,in CC#N,340 nm
same,absorption maximum,in CC(C)(C)O,341.8 nm
same,absorption maximum,in CC(C)=O,340.7 nm
same,absorption maximum,in CC(C)CC(C)(C)C,339.9 nm
same,absorption maximum,in CC(C)O,340.48 nm
same,absorption maximum,in CC(O)CO,342.3 nm
same,absorption maximum,in CCCCCCCO,342.5 nm
same,absorption maximum,in CCCCCCO,342.59 nm
same,absorption maximum,in CCCCCO,340.8 nm
same,absorption maximum,in CCCCO,341.8 nm
same,absorption maximum,in CCO,340.48 nm
same,absorption maximum,in CCOC(C)=O,340.02 nm
same,absorption maximum,in CCOCC,339.6 nm
same,absorption maximum,in CN(C)C=O,342.11 nm
same,absorption maximum,in CO,339.7 nm
same,absorption maximum,in CS(C)=O,343.6 nm
same,absorption maximum,in Cc1ccccc1,342.61 nm
same,absorption maximum,in OCCO,343.21 nm
N#Cc1nc(N(Cc2ccccc2Cl)Cc2ccccc2Cl)c(C#N)nc1N(Cc1ccccc1Cl)Cc1ccccc1Cl,absorption maximum,in ClC(Cl)Cl,485 nm
COc1cc2c3sc4ccccc4c3c3cncnc3c2c(OC)c1OC,absorption maximum,in ClCCl,376 nm
Cc1cc(C)c(B(c2cc3c4c(c(B(c5c(C)cc(C)cc5C)c5c(C)cc(C)cc5C)cc5c4c2CCC5)CCC3)c2c(C)cc(C)cc2C)c(C)c1,absorption maximum,in CCCCCC,420 nm
COc1ccc(-c2nc(-c3cccc(OC)c3)[nH]c2-c2ccc(OC)cc2)cc1,absorption maximum,in CO,300 nm
CN(C)c1ccc(C#Cc2ccc3ccc4ccc(C#Cc5ccc(N(C)C)cc5)c5ccc2c3c45)cc1,absorption maximum,in C1COCCO1,429 nm
same,absorption maximum,in CC(C)=O,431 nm
same,absorption maximum,in CCCCCC,421 nm
same,absorption maximum,in CCCCCCO,429 nm
same,absorption maximum,in CCO,426 nm
same,absorption maximum,in CCOC(C)=O,428 nm
same,absorption maximum,in CO,427 nm
same,absorption maximum,in Cc1ccccc1,429 nm
same,absorption maximum,in ClCCl,429 nm
COc1ccc2ccc([O-])cc2c1,absorption maximum,in O,337 nm
O=P(c1ccccc1)(c1ccccc1)n1c2ccccc2c2cc(-n3c4ccccc4c4ccccc43)ccc21,absorption maximum,in C1CCOC1,340 nm
COc1ccc(/C=C(\C#N)c2nc(-c3ccc(Cl)cc3)cs2)cc1,absorption maximum,in CC#N,373 nm
COc1ccc(-c2nc3ccccc3oc2=O)cc1,absorption maximum,in c1ccccc1,372 nm
C[Si](C)(C)C#Cc1cc2ccc3cc(C#C[Si](C)(C)C)cc4ccc(c1)c2c34,absorption maximum,in Cc1ccccc1,407 nm
COc1ccc(-c2nc(-c3cccc(C#N)c3)[nH]c2-c2ccc(OC)cc2)cc1,absorption maximum,in CO,327 nm
Brc1ccc(-c2nc3sc4ccccc4c3s2)cc1,absorption maximum,in CS(C)=O,353 nm
Cc1csc2[n+]1[B-](F)(F)n1c(c3cccc4cccc1c43)=N2,absorption maximum,in C1CCOC1,476 nm
same,absorption maximum,in CC#N,470 nm
same,absorption maximum,in CCCCCC,477 nm
same,absorption maximum,in Cc1ccccc1,479 nm
same,absorption maximum,in ClCCl,445 nm
O=C(c1ccc(N2c3ccccc3Oc3ccccc32)cc1)c1cccc(C(=O)c2ccc(N3c4ccccc4Oc4ccccc43)cc2)c1,absorption maximum,in Cc1ccccc1,416 nm
CCC1=C(C2=C(C3=C(CC)S(=O)(=O)c4cc(-c5ccccc5)ccc43)C(F)(F)C(F)(F)C2(F)F)c2ccc(-c3ccccc3)cc2S1(=O)=O,absorption maximum,in C1COCCO1,336 nm
CCCCCCCCCCCCCCCCOC(=O)c1ccc(N(c2ccccc2)c2ccccc2)cc1,absorption maximum,in C1CCCCC1,334 nm
same,absorption maximum,in C1CCOC1,334 nm
same,absorption maximum,in CC#N,332 nm
same,absorption maximum,in CCOC(C)=O,334 nm
same,absorption maximum,in ClCCCl,336 nm
same,absorption maximum,in c1ccccc1,334 nm
CC[n+]1nc2cc3c4c(c2c2cc(C)ccc21)CCCN4CCC3,absorption maximum,in O,500 nm
COc1cc(-c2cc(-c3ccccc3)c(-c3ccccc3)c(-c3ccccc3)c2-c2ccccc2)c(OC)cc1-c1ccc(N(C)C)cc1,absorption maximum,in ClC(Cl)Cl,329 nm
C1=Cc2ccccc2C(=Cc2ccc(-c3cc(-c4ccc(C=C5c6ccccc6C=Cc6ccccc65)cc4)c(-c4ccc(C=C5c6ccccc6C=Cc6ccccc65)cc4)cc3-c3ccc(C=C4c5ccccc5C=Cc5ccccc54)cc3)cc2)c2ccccc21,absorption maximum,in C1CCOC1,324 nm
CCCCCCCCCCCCCCOc1ccc(C#Cc2cc3nc4c(OCCCCCCCCCCCC)cc5c6cc(OCCCCCCCCCCCC)c(OCCCCCCCCCCCC)cc6c6cc(OCCCCCCCCCCCC)c(OCCCCCCCCCCCC)cc6c5c4nc3cc2C#Cc2ccc(OCCCCCCCCCCCCCC)cc2)cc1,absorption maximum,in ClC(Cl)Cl,486 nm
CCCCCCCCCC1(CCCCCCCCC)c2cc(C#Cc3ccc(/C=C/c4ccc(N(CCCCCCCC)CCCCCCCC)cc4)cc3)ccc2-c2ccc(C#Cc3ccc(/C=C/c4ccc(N(CCCCCCCC)CCCCCCCC)cc4)cc3)cc21,absorption maximum,in Cc1ccccc1,411 nm
CC[N+]1(CC)CN2C(=N1)C(C(=O)O)=Cc1cc(Cl)ccc12,absorption maximum,in O,377 nm
Cc1ccc(C2=C(c3ccc(C)cc3)c3cccc4c3c(cc3nc5ccccc5nc34)O2)cc1,absorption maximum,in ClCCl,498 nm
CC(C)[Si](C#Cc1c2nc3ccccc3nc2c(C#C[Si](C(C)C)(C(C)C)C(C)C)c2nc3c4ccccc4c(=O)c4ccccc4c3nc12)(C(C)C)C(C)C,absorption maximum,in ClCCl,603 nm
Cc1ccc2c(c1)C1(c3ccccc3-c3ccccc31)c1cc(C)ccc1N2c1ccc2c(c1)Oc1ccccc1P2(=S)c1ccccc1 (centres undefined),absorption maximum,in Cc1ccccc1,311.25 nm
CC(C)[Si](C#Cc1c2cc3ccccc3cc2c(C#C[Si](C(C)C)(C(C)C)C(C)C)c2nc3cc4c(cc3nc12)C1c2ccccc2C4c2ccccc21)(C(C)C)C(C)C,absorption maximum,in CCCCCC,675 nm
same,absorption maximum,in ClCCl,683 nm
c1ccc(-c2nc(-c3ccc(-c4ccc(N(c5ccccc5)c5ccccc5)cc4)cn3)oc2-c2ccccc2)cc1,absorption maximum,in C1CCOC1,351 nm
same,absorption maximum,in C1COCCO1,354 nm
same,absorption maximum,in CC#N,353 nm
same,absorption maximum,in CC(C)=O,352 nm
same,absorption maximum,in CC(C)OC(C)C,351 nm
same,absorption maximum,in CCCCCC,353 nm
same,absorption maximum,in CCCCOCCCC,353 nm
same,absorption maximum,in CCN(CC)CC,348 nm
same,absorption maximum,in CCOC(C)=O,351 nm
same,absorption maximum,in CCOCC,348 nm
same,absorption maximum,in Cc1ccccc1,358 nm
same,absorption maximum,in c1ccccc1,359 nm
N#Cc1ccc2c(c1)C1(c3cc(C#N)ccc3-2)c2ccccc2N(c2ccccc2)c2ccccc21,absorption maximum,in Cc1ccccc1,330.33 nm
CCOC(=O)/C=C/c1cc2ccc(-c3cn(Cc4ccccc4)nn3)cc2oc1=O,absorption maximum,in CCO,358 nm
c1ccc(-c2nc(-c3ccccc3)nc(-n3c4ccccc4c4cc(-n5c6ccccc6c6ccccc65)ccc43)n2)cc1,absorption maximum,in C1CCOC1,321.23 nm
